Experimental data published in US6495133B1, “Gliocladium roseum strains useful for the control of fungal pathogens in plants” (priority 1998, dated 2002).

Tested on: Pythium aphanidermatum
Assay: Comparison and compatibility of ACM941 with metalaxyl fungicide, pythium root rot of field pea, field experiments
Assay type: in vivo
Details: for Emergence / Yield: Saturn field pea
[1] = average of the two testing years

For COCC(=O)N(c1c(C)cccc1C)C(C)C(=O)OC (stereo not drawn) [Metalaxyl, metalaxyl], the Emergence 1997 was 44.3 ab %, the Yield 1997 was 990 bc kg/ha and the Emergence 1998 was 78.2 a %. The Yield 1998 was 5757 a kg/ha, the “increased emergence by” value [1] was 17.3% and the “increased yield by” value [1] was 19.5%.
